Laboratory results: patent publication US20230338307A1, “PROPHYLACTIC AGENT, AMELIORATING AGENT, AND THERAPEUTIC AGENT FOR DRY EYE” (TSUBOTA LABORATORY, INC., priority 2020, published 2023)

Experiments:
dry eye model [1] = experiment: Schirmer test (tear volume), dry eye model by erlotinib instillation (Example 1); type: in vivo; settings: 0.003% (w/v) apocynin in PBS, 3 μL twice daily, two weeks after start of instillation; erlotinib-instilled C57BL6 mice; FIG. 2
Description: (§1) After acclimating male C57BL6 mice (7 weeks old) to the experimental environment, those with almost uniform body weight values and no eye abnormalities were divided into the following 3 groups (n=5). • 7 weeks old/normal (non-dry eye group) • 7 weeks old/dry eye model+control (solvent eye drop) group • 7 weeks old/dry eye model+apocynin eye drop group The dry eye model was created by daily instillation of an EGF receptor inhibitor (erlotinib) based on the method of Yang et al. In this model, administration of erlotinib causes dry eye symptoms such as shortened BUT, decreased tear volume, and corneal damage after 1 week of administration (Non-patent Document 3). After 20 μM of erlotinib was instilled for 2 weeks, the control group received PBS alone, and the test group received 3 μL of a suspension of 0.003% (w/v) apocynin in PBS twice daily. Two weeks after the start of instillation, 1 μL of 0.1% sodium fluorescein solution was instilled into each of both eyes under isoflurane anesthesia, and a BUT test was performed using a slit lamp (Kowa Co., Ltd., SL-17) (FIG. 1). […] Under anesthesia, the tip of a Schirmer test paper cut to 1 mm width was inserted into the conjunctival sac of the lower eyelid of the mouse, the test paper was removed after 5 minutes, the length of the wetted part was read in units of 0.5 mm, and the value was used as the tear volume (FIG. 2).

dry eye model [2] = experiment: Tear film breakup time (BUT) test, dry eye model by erlotinib instillation (Example 1); type: in vivo; settings: 0.003% (w/v) apocynin in PBS, 3 μL twice daily, two weeks after start of instillation; erlotinib-instilled C57BL6 mice; FIG. 1
Description: as §1

dry eye model [3] = experiment: Tear film breakup time (BUT) test, dry eye model by systemic (intraperitoneal) erlotinib (Example 3); type: in vivo, mice; settings: 0.003% (w/v) apocynin in PBS, 3 μL twice a day, one week after start; erlotinib 50 mg/kg/day i.p. model; FIG. 5
Description: (§2) After acclimating male C57BL6 mice (7 weeks old) to the experimental environment, those with almost uniform body weight values and no eye abnormalities were divided into the following 3 groups (n=4). • 7 weeks old/normal (non-dry eye group) • 7 weeks old/dry eye model+control (solvent eye drop) group • 7 weeks old/dry eye model+apocynin eye drop group The dry eye model was prepared by dissolving erlotinib at a concentration of 5 mg/ml in 0.5% methylcellulose solution and administering it by intraperitoneal injection at a concentration of 50 mg/kg/day daily from the start of the study. The solvent 0.5% methylcellulose solution was similarly administered to the normal non-administration group. After one week of administration of erlotinib, the control group received PBS alone, and the test group received a solution of 0.003% (w/v) apocynin suspended in PBS twice a day at both eyes with 3 μL each. One week after the start of instillation, 1 μL of 0.1% sodium fluorescein solution was instilled into each of both eyes under isoflurane anesthesia, and the BUT test was performed under a blue filter using a slit lamp (Kowa Co., Ltd., SL-17) (FIG. 5).

dry eye model [4] = experiment: Fluorescein staining score (corneal damage), dry eye model by systemic erlotinib (Example 3); type: in vivo, mice; settings: 0.003% (w/v) apocynin eye drop twice a day, one week after start, FIG. 6
Description: as §2, with “5). In Example 3, one week after the start of apocynin instillation, photographs were taken under isoflurane anesthesia, and the degree of corneal damage was scored (FIG. 6).” for “5).”

dry eye model [5] = experiment: Fluorescein staining score (corneal epithelial damage), dry eye model by erlotinib instillation (Example 1); type: in vivo; settings: 0.003% (w/v) apocynin eye drop twice daily, two weeks; erlotinib-instilled mice; FIG. 3
Description: as §1, with “daily.” for “daily. Two weeks after the start of instillation, 1 μL of 0.1% sodium fluorescein solution was instilled into each of both eyes under isoflurane anesthesia, and a BUT test was performed using a slit lamp (Kowa Co., Ltd., SL-17) (FIG. 1).”, “2). In the dry eye model prepared in Example 1, after BUT measurement, fluorescein-stained images were photographed under a blue filter using a slit lamp (Kowa Co., Ltd., SL-17), and corneal epithelial damage was analyzed (FIG. 3). […]” for “2).”

COc1cc(C(C)=O)ccc1O [apocynin, 4-hydroxy-3-methoxyacetophenone]
tear volume (Schirmer test) (dry eye model [1]): improved
tear film breakup time (BUT) (dry eye model [2]): improved the shortening of BUT
tear film breakup time (BUT) (dry eye model [3]): significantly improved
corneal epithelial damage (fluorescein staining score) (dry eye model [4]): significantly improved
corneal epithelial damage (fluorescein staining score) (dry eye model [5]): significant improvement was observed
